This passage reports IC50 and logP results from ChEMBL document CHEMBL1131583, “Structure-based design and synthesis of lipophilic 2,4-diamino-6-substituted quinazolines and their evaluation as inhibitors of dihydrofolate reductases and potential antitumor agents” (J Med Chem, 1998).

Molecules are shown by their SMILES.

Series [1] addresses T1, Dihydrofolate reductase (Rattus norvegicus, UniProt Q920D2).
T1 sequence (Q920D2 whole entry): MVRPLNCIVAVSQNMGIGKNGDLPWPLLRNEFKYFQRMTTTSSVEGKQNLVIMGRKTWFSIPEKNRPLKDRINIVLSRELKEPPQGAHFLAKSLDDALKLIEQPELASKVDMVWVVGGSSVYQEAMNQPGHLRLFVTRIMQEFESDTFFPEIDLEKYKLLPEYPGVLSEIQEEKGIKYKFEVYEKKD
The series is described as follows: Inhibitory activity against Dihydrofolate reductase from rat liver (rlDHFR).

Series [2] has as its target T2, Dihydrofolate reductase (Pneumocystis carinii, UniProt P16184).
T2 sequence (P16184 whole entry): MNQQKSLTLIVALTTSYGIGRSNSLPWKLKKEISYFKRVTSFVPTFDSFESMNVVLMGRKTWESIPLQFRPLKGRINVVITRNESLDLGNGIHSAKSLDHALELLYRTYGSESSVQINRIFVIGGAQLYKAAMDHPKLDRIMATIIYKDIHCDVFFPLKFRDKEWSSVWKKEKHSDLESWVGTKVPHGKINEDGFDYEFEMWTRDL
Description: Inhibitory activity against Dihydrofolate reductase from Pneumocystis carinii (pcDHFR)

Series [3] has as its target T3, Bifunctional dihydrofolate reductase-thymidylate synthase (Toxoplasma gondii, UniProt Q07422).
T3 sequence (Q07422 whole entry): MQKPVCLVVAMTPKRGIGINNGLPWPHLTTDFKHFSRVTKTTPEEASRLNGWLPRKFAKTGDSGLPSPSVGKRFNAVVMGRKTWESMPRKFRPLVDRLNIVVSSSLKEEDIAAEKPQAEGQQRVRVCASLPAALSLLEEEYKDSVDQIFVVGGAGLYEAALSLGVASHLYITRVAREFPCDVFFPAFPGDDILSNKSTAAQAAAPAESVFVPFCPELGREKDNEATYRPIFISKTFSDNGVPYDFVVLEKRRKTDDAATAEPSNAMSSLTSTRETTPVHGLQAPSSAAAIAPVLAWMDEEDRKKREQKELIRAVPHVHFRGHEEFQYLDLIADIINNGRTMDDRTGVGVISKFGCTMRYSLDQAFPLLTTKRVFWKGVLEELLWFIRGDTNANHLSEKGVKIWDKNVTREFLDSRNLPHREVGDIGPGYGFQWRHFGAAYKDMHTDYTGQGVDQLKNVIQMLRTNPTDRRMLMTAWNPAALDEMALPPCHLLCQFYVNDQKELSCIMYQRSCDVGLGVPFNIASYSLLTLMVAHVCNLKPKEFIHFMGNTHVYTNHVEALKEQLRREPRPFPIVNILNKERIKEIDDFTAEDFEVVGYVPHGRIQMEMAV
Description: Inhibitory activity against Dihydrofolate reductase from Toxoplasma gondii (tgDHFR)

In series [4] the target is T4, Dihydrofolate reductase (Lactobacillus casei, UniProt P00381). The series is described as follows: Inhibitory activity against Dihydrofolate reductase from Lactobacillus casei ( lcDHFR). On the set-up: species or system Lacticaseibacillus casei.
The target in series [5] is T5, Dihydrofolate reductase (Homo sapiens, UniProt P00374).
T5 sequence (P00374 whole entry): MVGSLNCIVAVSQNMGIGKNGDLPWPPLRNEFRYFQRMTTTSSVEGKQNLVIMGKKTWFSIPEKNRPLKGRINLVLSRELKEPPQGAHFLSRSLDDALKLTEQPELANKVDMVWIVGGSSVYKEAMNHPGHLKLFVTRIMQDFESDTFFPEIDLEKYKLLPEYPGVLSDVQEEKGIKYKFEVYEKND
Description: Inhibitory activity against Dihydrofolate reductase from recombinant human (hDHFR)

Series [6] concerns the target T3, Bifunctional dihydrofolate reductase-thymidylate synthase. As to the kind of experiment: Inhibition of recombinant Dihydrofolate reductase from Toxoplasma gondii (tgDHFR).
In series [7] the target is T4, Dihydrofolate reductase.
Description: Inhibitory activity against Dihydrofolate reductase from Lactobacillus casei (lcDHFR)
For series [8], the target named is T3, Bifunctional dihydrofolate reductase-thymidylate synthase. As to the kind of experiment: Inhibitory activity against recombinant Dihydrofolate reductase from Toxoplasma gondii (tgDHFR).
Series [9] in a line: Partition coefficient (logP). It is filed as physicochemical. Conditions: octanol/water.

T4 sequence (P00381 whole entry): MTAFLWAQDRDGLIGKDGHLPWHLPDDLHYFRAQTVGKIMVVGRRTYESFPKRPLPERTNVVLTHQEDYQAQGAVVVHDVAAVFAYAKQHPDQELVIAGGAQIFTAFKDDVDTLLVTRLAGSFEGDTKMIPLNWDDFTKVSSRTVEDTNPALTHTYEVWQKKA

Regarding `COc1cc(CN(C)c2ccc3nc(N)nc(N)c3c2)cc(OC)c1`, the IC50 against Dihydrofolate reductase [1] was found to be 8.2 nM; against Dihydrofolate reductase [2] it was 23.8 nM; in [3], 9.3 nM; at Dihydrofolate reductase [4], 37 nM; against Dihydrofolate reductase [5] it was 11 nM; in [6], 4.7 nM.
With `COc1cc(CNc2ccc3nc(N)nc(N)c3c2)cc(OC)c1OC`, the IC50 against Dihydrofolate reductase [1] worked out at 900 nM; against Dihydrofolate reductase [2], 6800 nM; in series [3] it was 84 nM; at Dihydrofolate reductase [7] it was 2800 nM; on Dihydrofolate reductase [5], 23000 nM; in [6], 920 nM.
As to `COc1cc(OC)c(CNc2ccc3nc(N)nc(N)c3c2)c(OC)c1`, the concentration for half-maximal inhibition (IC50) amounted to 22700 nM against Dihydrofolate reductase [1], 116000 nM on Dihydrofolate reductase [2], 37000 nM against Dihydrofolate reductase [7] and 25000 nM against Dihydrofolate reductase [5].
The matching figures for `CN(Cc1cccc2c1CCCC2)c1ccc2nc(N)nc(N)c2c1`: 17 nM, 17 nM, 21 nM and 27 nM.
In the case of `COc1cc(OC)c(OC)cc1CNc1ccc2nc(N)nc(N)c2c1`, the IC50 against Dihydrofolate reductase [1] came out at 1600 nM; against Dihydrofolate reductase [2], 5400 nM; in series [3], 124 nM; at Dihydrofolate reductase [7], 1600 nM; in series [6], 540 nM.
On to `Nc1nc(N)c2cc(NCc3ccccc3)ccc2n1`, for which the IC50 stood at 660 nM on Dihydrofolate reductase [1]; 8700 nM against Dihydrofolate reductase [2]; 320 nM in [3]; 2700 nM against Dihydrofolate reductase [7]; 2400 nM at Dihydrofolate reductase [5]; 1400 nM in series [8].
As for `COc1ccc(CN(C)c2ccc3nc(N)nc(N)c3c2)c(OC)c1`, the IC50 against Dihydrofolate reductase [1] was determined as 43 nM; against Dihydrofolate reductase [2] it was 100 nM; in series [3], 39 nM; on Dihydrofolate reductase [7], 120 nM; against Dihydrofolate reductase [5], 50 nM; in [6], 3.9 nM.
On to `COc1ccc(CNc2ccc3nc(N)nc(N)c3c2)c(OC)c1`, for which the IC50 amounted to 1200 nM on Dihydrofolate reductase [1]; 4400 nM against Dihydrofolate reductase [2]; 170 nM in series [3]; 2100 nM against Dihydrofolate reductase [7]; 780 nM in series [6].
As to `COc1ccc(CNc2ccc3nc(N)nc(N)c3c2)c(OC)c1OC`, the IC50 against Dihydrofolate reductase [1] was determined as 1300 nM; against Dihydrofolate reductase [2], 4900 nM; in series [3], 190 nM; against Dihydrofolate reductase [7] it was 2000 nM; at Dihydrofolate reductase [5] it was 27000 nM; in series [6], 810 nM.
Turning to `COc1cc(CNc2ccc3nc(N)nc(N)c3c2)cc(OC)c1`, the IC50 against Dihydrofolate reductase [1] came out at 840 nM; against Dihydrofolate reductase [2], 2200 nM; in series [3], 120 nM; on Dihydrofolate reductase [7], 2300 nM; against Dihydrofolate reductase [5], 28000 nM; in series [6] it was 840 nM.
`COc1ccc(OC)c(CNc2ccc3nc(N)nc(N)c3c2)c1`: the IC50 against Dihydrofolate reductase [1] is 1100 nM; on Dihydrofolate reductase [2], 4600 nM; in series [3], 160 nM; at Dihydrofolate reductase [7], 3000 nM; against Dihydrofolate reductase [5], 28000 nM; in series [6], 1100 nM.
`COc1ccc(CN(C)c2ccc3nc(N)nc(N)c3c2)c(OC)c1OC`: the IC50 against Dihydrofolate reductase [1] came out at 19 nM; on Dihydrofolate reductase [2], 52 nM; in [3] it was 17 nM; at Dihydrofolate reductase [7], 59 nM; at Dihydrofolate reductase [5], 140 nM; in series [6], 5.4 nM.
As to `COc1ccc(OC)c(CN(C)c2cnc3nc(N)nc(N)c3c2)c1`, in [9], the logP came to 1.87.
Turning to `COc1ccc(OC)c(CN(C)c2ccc3nc(N)nc(N)c3c2)c1`, the IC50 was found to be 87 nM at Dihydrofolate reductase [2], 30 nM in [3], 130 nM against Dihydrofolate reductase [4] and 3.9 nM in series [6].
`COc1ccc(OC)c(CNc2cnc3nc(N)nc(N)c3c2)c1` had a logP in series [9] of 1.32.
In series [3], `COc1cc(CNc2cnc3nc(N)nc(N)c3c2)cc(OC)c1OC` returned an IC50 of 395 nM. The molecule also displayed a log partition coefficient (logP) in [9] of 0.89.
In turn, `COc1cc(CN(C)c2cnc3nc(N)nc(N)c3c2)cc(OC)c1` came in with a logP in series [9] of 1.87.
Consider `COc1cc(NCc2ccc3nc(N)nc(N)c3c2C)cc(OC)c1OC` [TRIMETREXATE], for which it took 260 nM to reach half-maximal inhibition on Dihydrofolate reductase [7] (IC50).

For orientation: IC50 means the concentration that inhibits the measured activity by half. As a reminder, the logP is the decadic logarithm of the partition coefficient of the neutral form, usually between octanol and water.
